Results reported in PubChem BioAssay (NCI).
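Interpolation was linear, between the two tested concentrations surrounding the appropriate level; five concentrations were tested over 48 hours in 96-well plates. The concentration for 50% growth inhibition is given as GI50. TGI is the concentration that stops growth completely.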

Columns and labels:
Experiment in all cases: DTP human tumour cell line panel, 48 h
SNB-19 CNS = system: SNB-19 CNS
NCI-H522 lung = system: NCI-H522 lung
SNB-75 CNS = system: SNB-75 CNS
SF-539 CNS = system: SF-539 CNS
SF-295 CNS = system: SF-295 CNS
HT29 colon = system: HT29 colon
KM12 colon = system: KM12 colon
MDA-MB-435 = system: MDA-MB-435
HS 578T breast = system: HS 578T breast
BT-549 breast = system: BT-549 breast

| SMILES | TGI (SNB-19 CNS) [µM] | TGI (NCI-H522 lung) [µM] | TGI (SNB-75 CNS) [µM] | TGI (SF-539 CNS) [µM] | TGI (SF-295 CNS) [µM] | TGI (HT29 colon) [µM] | TGI (KM12 colon) [µM] | TGI (MDA-MB-435) [µM] | TGI (HS 578T breast) [µM] | GI50 (SNB-19 CNS) [µM] | GI50 (NCI-H522 lung) [µM] | GI50 (SNB-75 CNS) [µM] | GI50 (SF-539 CNS) [µM] | GI50 (SF-295 CNS) [µM] | GI50 (HT29 colon) [µM] | GI50 (KM12 colon) [µM] | GI50 (BT-549 breast) [µM] | TGI (BT-549 breast) [µM] | GI50 (HS 578T breast) [µM] | GI50 (MDA-MB-435) [µM] |
| --- | --- | --- | --- | --- | --- | --- | --- | --- | --- | --- | --- | --- | --- | --- | --- | --- | --- | --- | --- | --- |
| Cc1ccc(Sc2ccc(C)cc2[N+](=O)[O-])c([N+](=O)[O-])c1 | > 100 | > 100 | > 100 | > 100 | > 100 | > 10 | > 100 |  |  |  |  |  |  |  |  |  |  |  |  |  |
| COc1cc(C)c(O)c(C(=O)O)c1 | > 100 | > 100 | > 100 |  | > 100 | > 100 | > 100 |  |  |  |  |  |  |  |  |  |  |  |  |  |
| CCC(/C=C/c1ccccc1)=N\Nc1ccc(Cl)c(Cl)c1 | > 100 | 46.1 | > 100 | 66.1 | > 100 | > 100 | > 100 | > 100 | > 100 |  |  |  |  |  |  |  |  |  |  |  |
| N.N.NCCCCCCN.O=C([O-])CC(=O)[O-].O=C([O-])CC(=O)[O-].[Pt+4].[Pt+4] | > 100 | > 100 | > 100 | > 100 | > 100 | > 100 | > 100 |  |  | > 72.1 | 29 | 38.7 | 73.9 | > 71.6 | 62.5 | > 100 |  |  |  |  |
| O=C(CCc1cc(-c2ccccc2)nc(=S)[nH]1)Nc1ccccc1[N+](=O)[O-] | > 100 | > 100 | > 100 | > 100 | > 100 | > 100 | > 100 |  |  |  |  |  |  |  |  |  |  |  |  |  |
| CCOc1ccccc1/C=N\N=C(\N)N/N=C/c1ccccc1OCC | > 100 |  | 8.05 |  | > 100 | > 100 | > 100 |  | 7.26 | 4.49 |  | 1.78 |  | 1.36 | 2.5 | 1.89 | 5.08 | > 100 | 1.65 |  |
| CCN1C(=O)N(CC)C2C1NN=c1s/c(=C\c3cc4ccccc4[nH]3)c(=O)n12 (centres undefined) | 15.8 | 1.02 | 0.641 |  | 14.8 | > 100 | > 58.6 |  | 9.1 | 0.055 | < 0.0164 | < 0.0149 | < 0.01 | < 0.0112 | < 0.01 | < 0.012 | 0.0178 | 16 | < 0.0203 |  |
| O=c1cc(N=Nc2ccc(O)cc2)[nH]c(=O)[nH]1 | > 100 | > 100 | 89.9 | > 100 | > 100 | > 100 | > 100 | > 100 |  |  |  |  |  |  |  |  |  | > 100 |  |  |
| Cc1cn2c(/C=N/Nc3ccccn3)c(-c3ccc(Cl)c([N+](=O)[O-])c3)nc2s1 | 32.7 | 26.5 |  | 3.53 | > 50 |  | > 50 | > 50 | 39.4 | 12.4 | 7.35 |  | 1.12 | 23 |  | 23.1 | 21.1 | > 50 | 12 | 30.3 |
| COc1ccc2c(c1)C(C)Cc1c(Cl)nc(C)nc1N2C (centres undefined) | 29.5 | 5.92 | 9.04 | 6.11 | 7.92 | 8.92 | 11.4 |  | 64.4 | 3.48 | 0.763 | 1.94 | 1.68 | 1.74 | 2.2 | 0.789 | 2.22 | 12.3 | 3.98 |  |
| C=C1CCC2[C@@H](CCC3[C@]2(C)CCC[C@]3(C)C(=O)OC)C1CCO (some centres undefined) | 28 | 21.6 | 19.7 | 26.3 | 30.9 | 17.8 | 25.2 |  |  |  |  |  |  |  |  |  |  |  |  |  |
| C=CCC(OCCOCC)c1cc(OCCOCC)ccc1OC (centres undefined) | > 100 | > 100 | > 100 | > 100 | > 100 | > 100 | > 100 |  |  |  |  |  |  |  |  |  |  |  |  |  |
| COC(=O)C1=C(C(=O)OC)SC(=C(N=Nc2ccccc2)c2ccccc2)S1 | > 100 | > 100 | > 100 | > 100 | > 100 | > 100 | > 100 |  |  |  |  |  |  |  |  |  |  |  |  |  |
| CCN(CC)CC(C(=O)Nc1c(C)cccc1C)/C(C)=N\NC(=O)c1ccncc1 (centres undefined) | > 100 | > 100 | > 100 | > 100 | > 100 | > 100 | > 100 |  |  |  |  |  |  |  |  |  |  |  |  |  |
| C/C=C/C=C/CCCCCCCCCCCCCC1(OC)C=CC(CC(=O)OC)OO1 (centres undefined) | 31.7 | 3.09 | 22.4 | 28.6 | 6.34 | 3.43 | 3.13 |  |  |  | 1.58 |  |  | 2.58 | 1.82 | 1.56 |  |  |  |  |
| C=C1CCc2occ(C)c2C2C1C1=C(CC(C)C1=O)C1OC12C (centres undefined) | > 100 | > 100 | > 100 | > 100 | > 100 | > 100 | > 100 |  |  |  |  |  |  |  |  |  |  |  |  |  |
| COC(=O)C1=C(O)c2cc3c(cc2[C@H](c2cc(OC)c(OC)c(OC)c2)C1C(=O)OC)OCO3 (some centres undefined) | > 100 |  | 66 | > 100 | > 100 | > 100 | > 100 |  |  |  |  |  |  |  |  |  |  |  |  |  |
| CCCC(Sc1ccccc1)P(=O)(c1ccccc1)c1ccccc1 (centres undefined) | > 100 | > 100 | > 100 | > 100 | > 100 |  | > 100 |  |  |  |  |  |  |  |  |  |  |  |  |  |
| C[C@@H](NC1CCC[C@H]1O)c1ccccc1 (some centres undefined) | > 100 |  | > 100 |  | > 100 | > 100 | > 100 |  |  |  |  |  |  |  |  |  |  |  |  |  |
| CCN(CC)c1ccc(C(=N)c2ccc(N(C)C)cc2)cc1 | 10.1 |  | > 21.7 | 4.18 | 2.88 | 4.02 | 4.05 | 1.05 | 2.67 | 2.19 |  | 2.26 | 1.63 | 0.161 | 0.0399 | 0.171 | 0.227 | 0.966 | 0.19 | 0.0962 |
| O=C1c2ccccc2CC1C1(O)C(=O)Nc2ccccc21 (centres undefined) | > 100 | > 100 | > 100 | > 100 | > 100 | > 100 |  |  |  |  |  |  |  |  |  |  |  |  |  |  |
